Experimental data as given in US20240342167A1, “INHIBITORS OF PORCINE REPRODUCTIVE AND RESPIRATORY SYNDROME VIRUS” (University of Connecticut, priority 2023, published 2024).
Entries after “also recorded” stand apart in the source; their conditions may differ.

How the values were obtained:
[1] = biological target: T1, PPI between PRRSV glycoprotein GP2a and CD163-SRCR5 (Sus scrofa, UniProt Q2VL90); experiment: BiFC assay GP2a/SRCR5; type: cell-based, porcine CD163; PRRSV VR2332; conditions: for Average GP2a (relative fluorescence intensity, SRCR5/GP2a BiFC): 5 μM, HEK293T, 24 h after transfection, relative to NC (DMSO) = 1.00, n=3, 5 µM
T1 construct: SRCR5 domain of porcine CD163 receptor was amplified from cDNA of pig cells; expressed in transfected cells; host or cells: HEK293T
T1 sequence (Q2VL90 477-577): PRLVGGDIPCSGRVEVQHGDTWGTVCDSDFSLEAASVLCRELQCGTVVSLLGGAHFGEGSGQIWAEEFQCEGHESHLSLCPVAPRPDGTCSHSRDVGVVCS
Method: (§1) HEK293T cells were cultivated in 6-well plates in FP medium and transfected with 1 μg XpBiFC-VN155 (I152L)-SRCR5 and 1 μg pBiFC-VC155-GP2/GP4 using Fugene6. After 4 h, cells were digested with 0.05% Typsin-EDTA (ThermoFisher Scientific, MA, USA)) and passaged to 48-well plates which were coated with EmbryoMax 0.1% Gelatin Solution (Sigma-Aldrich, MO, USA) and preloaded with 5 μM B7 analogues. Fluorescence images were taken at 24 h after transfection and fluorescence intensity was measured by image J.

GFP-fusion CD163-SRCR5 = biological target: T2, GFP-fusion CD163-SRCR5 (Sus scrofa, UniProt Q2VL90); experiment: Microscale thermophoresis (MST), GFP-SRCR5; type: binding, porcine; conditions: read-out: dissociation constant (Kd)
T2 construct: The purified GFP, GFP-fused SRCR2 or SRCR5 proteins were mixed with serially diluted compounds; made in house; host or cells: Escherichia coli BL21 (DE3)
T2 sequence (Q2VL90 477-577 limits assumed): as the sequence (Q2VL90 477-577) above
Method: (§2) The recombinant pET28b-GFP-SRCR2/SRCR5 constructs were transformed into Escherichia coli strain BL21 (DE3) (New England Biolabs, MA, USA). The transformed clones were cultured at 37° C. in LB broth with […] kanamycin, induced by adding 1 mM isopropyl β-D-1-thiogalactopyranoside at optical density of 0.6-0.8, and then incubated at 37° C. for 3 h. For protein purification, cells were pelleted and resuspended in xTractor Buffer containing DNAse I, lysozyme solution, and Protease Inhibitor Cocktail (Takara Bio USA, Inc., CA). The suspension was sonicated and centrifuged. The supernatant was incubated with equilibrated TALON Metal Affinity Resin (Takara Bio USA, Inc., CA, USA) and then were eluted from resin with the elution buffer (pH 7.0, 150 mM imidazole, 50 mM NaH2PO4, and 300 mM NaCl). The eluted proteins were concentrated and with buffer exchanged to phosphate-buffered saline (pH 7.4) containing 0.05% Tween-20 (PBST) using Protein Concentrator PES, 10 kD MWCO (Pierce Biotechnology, PA, USA).
(§3) The purified GFP, GFP-fused SRCR2 or SRCR5 proteins were mixed with serially diluted compounds. The mixtures were loaded to capillaries and the affinity was measured by Monolith NT.115 (NanoTemper Technologies, Inc., CA, USA) at corresponding MST power with the blue channel.

GFP-fusion CD163-SRCR2 = biological target: T3, GFP-fusion CD163-SRCR2 (Sus scrofa, UniProt Q2VL90); experiment: Microscale thermophoresis (MST), GFP-SRCR2; type: binding, porcine
T3 construct: The purified GFP, GFP-fused SRCR2 or SRCR5 proteins were mixed with serially diluted compounds; made in house; host or cells: Escherichia coli BL21 (DE3)
T3 sequence (Q2VL90 158-258 limits assumed): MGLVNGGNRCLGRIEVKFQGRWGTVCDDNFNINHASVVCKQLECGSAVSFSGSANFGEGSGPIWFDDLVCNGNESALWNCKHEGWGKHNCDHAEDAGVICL
Method: as §2, §3

GFP [2] = experiment: Microscale thermophoresis (MST), GFP; type: binding
Method: as §2, §3

[3] = biological target: T4, PPI between PRRSV GP4 and CD163-SRCR5 domain (Sus scrofa, UniProt Q2VL90); experiment: BiFC assay GP4/SRCR5; type: cell-based, porcine CD163; PRRSV VR2332; conditions: for Average GP4 (relative fluorescence intensity, SRCR5/GP4 BiFC): 5 μM, HEK293T, 24 h after transfection, relative to NC (DMSO), n=3, 5 µM
T4 construct: SRCR5 domain of porcine CD163 receptor was amplified from cDNA of pig cells; expressed in transfected cells; host or cells: HEK293T
T4 sequence (Q2VL90 477-577): as the sequence (Q2VL90 477-577) above
Method: as §1

GFP [4] = biological target: T5, GFP; experiment: Microscale thermophoresis (MST) assay: association of B7 with purified GFP (control protein); type: binding; conditions: Monolith NT.115, blue channel, GFP alone (control), values represent Mean, N=3
T5 construct: made in house
Method: Values represent Mean, N=3.
as §2
The purified GFP, GFP-fused SRCR2 or SRCR5 proteins were mixed with serially diluted compounds. The mixtures were loaded to capillaries and the affinity was measured by Monolith NT.115 (NanoTemper Technologies, Inc., CA, USA) at corresponding MST power with the blue channel. […]

Structure (SMILES)	Average GP2a (relative fluorescence intensity, SRCR5/GP2a BiFC) ([1]; listed as H5, 1440 min)	Average GP2a (relative fluorescence intensity, SRCR5/GP2a BiFC) ([1]; listed as PC, 1440 min)	inhibition of the PPI between PRRSV GP2a and CD163 SRCR5 (in words) ([1]; positive control)	Kd (GFP-fusion CD163-SRCR5) [mM]	association with GFP-SRCR2 (in words) (GFP-fusion CD163-SRCR2)	association with GFP (in words) (GFP [2])	Average GP4 (relative fluorescence intensity, SRCR5/GP4 BiFC) ([3]; listed as H5, 1440 min)	Average GP4 (relative fluorescence intensity, SRCR5/GP4 BiFC) ([3]; listed as PC, 1440 min)	inhibition at 5 µM ([3]; HEK-293T, read-out: reduction of the YFP fluorescence signal compared with NC (inhibition in GP4/SRCR5 BiFC)) [%]	Kd (GFP [4]) [mM]
Cc1cc(F)ccc1S(=O)(=O)Nc1nc2ccccc2nc1Nc1cccc(S(=O)(=O)N2CCOCC2)c1 [B7]	0.15	0.02	significantly inhibited	0.032	little or no association; also recorded: did not interact	little or no association	0.06	0.24	> 70	
Cc1cc(F)ccc1S(=O)(=O)Nc1nc2ccccc2nc1Nc1cccc(S(=O)(=O)N2CCOCC2)c1 [Compound B7]										2.11
